Test results taken from patent US11679107B2 (Eisai R&D Management Co., Ltd., priority 2018, dated 2023).
Read-outs that look alike come from different tables or passages of the source.

Experiments:
[1] = system: NCI-H1568 cells (high MCL1); test: Cell proliferation and viability, CellTiter-Glo, 72 hours; assay type: cell-based; conditions: for GI50: geometric mean
Experimental: Cell lines were maintained in RPMI-1640 (ATCC 30-2001) supplemented with 10% fetal bovine serum (FBS). The Panc lines were supplemented in addition with insulin and FBS up to 15% total.
Compounds for assay were prepared as stocks in 90% dimethyl sulfoxide (DMSO), assessed for purity by LC/MS, and serially diluted in DMSO using a low-volume liquid handler (VIAFLO ASSIST and VIAFLO II electronic 16-channel pipette, 0.5-12.5 μL) in an 11-point half-log serial dilution to create a master dose response (MDR) source used for all tests.
Transfer of compounds from the MDR source plate to cell assay-ready plates were accomplished directly by low-energy acoustic transfer (ATS100, EDC Biosystems). After transfer of compounds to the assay plate, the dose-response range experienced by cells was typically 10 μM-100 pM (5 logs), and final DMSO concentration in the assay was 0.1%, uniformly. Each assay plate was self-anchored containing vehicle/DMSO negative controls, medium-only/positive controls, and cidal control dose-responses of bortezomib and staurosporine. Assay-ready plates were heat-sealed and stored at −20° C. until used, no longer than one month.
A DMSO-matched time zero (T0) plate was read and then all other plates were incubated at 37° C. with 5% CO2 and 95% relative humidity until the end of assay. Cell proliferation and viability assays were performed 72 hours post-treatment depending on cell growth where at least one doubling would have occurred.
Assessment of viability and proliferation was by measurement of cell ATP content using CellTiter-Glo® Luminescent Cell Viability Assay reagent (Promega) according to the manufacturer's instructions (CellTiter-Glo® Luminescent Cell Viability Assay Technical Bulletin Instructions for Use of Product(s) G7570, G7571, G7572, G7573 Literature #TB288, Revised March 2015), using a microtiter plate reader (Envision, PE).
Cell proliferation was evaluated using the time zero (T0) signal as the positive control and the within-plate vehicle wells (DMSO) as the negative control. Data was converted to percent inhibition and falls into the range from −100% to 100% of growth where −100% equals a cidal response and 100% equals uninhibited or maximal growth. Cell growth at or near 0% is considered a static response.

SF3b complexes = molecular target: T1, SF3b complexes (Homo sapiens, UniProt O75533+Q7RTV0); test: Scintillation proximity assay (SPA) with [3H]-labelled pladienolide probe; assay type: binding; conditions: SF3B1 (WT); geometric mean; read-out: SPA-ATS GMean IC50 (nM) SF3B1 (WT)
T1 construct: endogenous in cells; host or cells: Nuclear extracts; A HeLa S3 extract preparation is described for the in vitro splicing assay
Experimental: Scintillation Proximity Assay (SPA) with [^3-H]-Labelled Pladienolide Probe
(§1) Batch immobilization of anti-SF3B1 antibody (MBL) to anti-mouse PVT SPA scintillation beads (PerkinElmer) was prepared as follows: for every 2.5 mg of nuclear extracts, 5 μg anti-SF3B1 antibody and 1.5 mg of beads were mixed in 150 μl PBS. The antibody-bead mixture was incubated for 30 min at RT and centrifuged at 18,000 g for 5 min. 150 μl PBS was used to resuspend every 1.5 mg antibody-bead mixture. The beads were suspended and added to the prepared nuclear extracts. The slurry was incubated for 2 h at 4° C. with gentle mixing. The beads were then collected by centrifuging at 18,000 g for 5 min, and washed twice with PBS+0.1% Triton X-100. After a final centrifugation step, every 1.5 mg of beads was suspended with 150 μl of PBS. The SF3b complexes were tested for [^3H]-labelled pladienolide probe binding ([^3H]—PB), synthesized as previously described (Kotake et al., 2007). 100 μl binding reactions were prepared with 50 μl bead slurry and by adding varying concentrations of PB or PB—OH, and after 30 min pre-incubation, 2.5 nM [^3H]—PB was added. The mixture was incubated for 30 min, and luminescence signals were read using a MicroBeta2 Plate Counter (PerkinElmer). Prism 6 (Graphpad) was used for non-linear regression curve fitting of the data. • a. • b. HeLa nuclear extract preparation (for in vitro splicing modulation assay below) • c. HeLa S3 cell pellets were resuspended in hypotonic buffer (10 mM HEPES pH 7.9, 1.5 mM MgCl2, 10 mM KCl, 0.2 mM PMSF, and 0.5 mM DTT) and the suspension was brought up to a total of 5 packed cell volume (PCV). After centrifugation, the supernatant was discarded, and the cells were brought up to 3 PCV with hypotonic buffer and incubated on ice for 10 minutes. Cells were lysed using a dounce homogenizer and then centrifuged. The supernatant was discarded, and the pellet was resuspended with ½ packed nuclear volume (PNV) of low salt buffer (20 mM HEPES pH 7.9, 1.5 mM MgCl2, 20 mM KCl, 0.2 mM EDTA, 25% glycerol, 0.2 mM PMSF, 0.5 mM DTT), followed by ½ PNV of high salt buffer (same as low salt buffer except 1.4 M KCl was used). The nuclei were gently mixed for 30 minutes before centrifuging. The supernatant (nuclear extract) was then dialyzed into storage buffer (20 mM HEPES pH 7.9, 100 mM KCl, 0.2 mM EDTA, 20% glycerol, 0.2 mM PMSF, 0.5 mM DTT). Protein concentration was determined using NanoDrop 8000 UV-Vis spectrophotometer (ThermoFisher Scientific). • d. In vitro splicing assay (IVS)

[2] = system: Ad2 variant pre-mRNAs spliced in HeLa S3 nuclear extracts; test: In vitro splicing assay (IVS), RT-qPCR of spliced product; assay type: biochemical; conditions: for IC50: geometric mean; for Ratio Ad2.1/2.2: ratio of IVS IC50 Ad2.1 to Ad2.2
Experimental: as §1
All Ad2-derived (Pellizzoni et al., 1998) sequences were cloned into pcDNA3.1(+) vector (Promega) using 5′ EcoRI and 3′ XbaI restriction sites. The plasmids were linearized using XbaI and used as DNA templates in the in vitro transcription reactions. The FtzΔi intron-less plasmid (Luo and Reed, 1999) was linearized using EcoRI. All RNAs were in vitro transcribed and then purified using MEGAScript T7 (Invitrogen) and MegaClear (Invitrogen) kits, respectively. For splicing reactions using Ad2 variant pre-mRNAs, […] reactions were prepared using 8 μg nuclear extracts prepared from HeLa S3, 2 ng pre-mRNA, 0.2 ng FTZΔi, and varying concentrations of exemplary payloads or DMSO. After a 15 minute pre-incubation at 30° C., 1 μL splicing activation buffer (0.5 mM ATP, 20 mM creatine phosphate, 1.6 mM MgCl2) was added, and the reactions were incubated for 90 minutes at 30° C. The reactions were then quenched with 13 μL it DMSO, and 25 nL was used for RT-qPCR. RT-qPCR reactions were prepared using TaqMan RNA-to-CT 1-step kit (Life Technologies), RNA from splicing reactions, Ad2 (forward: […]; reverse: […]; probe: […]) and Ftz (forward: […]; reverse: […]; probe: […]) mRNA primer-probe sets. Prism 6 (Graphpad) was used for non-linear regression curve fitting of the formed spliced product and normalized to the control (DMSO) sample.

[3] = NCI-H1568, read-out: CTGlo-ATS GMean GI50 (nM) 72 h NCIH1568.1, NCIH1568.1 cells, 72 h
[4] = NCIH1568.1 cells, 72 h, −100% cidal, 0% static, 100% maximal growth
[5] = Ad2.1 pre-mRNA substrate, read-out: qPCR-IVS-ATS GMean IC50 (nM) Ad2.1
[6] = Ad2.2 pre-mRNA substrate, read-out: qPCR-IVS-ATS GMean IC50 (nM) Ad2.2
[7] = 72 h, NCIH1568.1, -100% = cidal, 0% = static, 100% = uninhibited growth
[8] = NCI-H1568, read-out: CTGlo-ATS GMean GI50 (nM) 72 h NCIH1568.1, 72 h, NCIH1568.1
[9] = NCI-H1568, 72 h, read-out: CTGlo-ATS GMean GI50 (nM) 72 h NCIH1568.1, NCIH1568.1 cells, 72 h

| SMILES | GI50 [1, 3] | CTGlo-ATS Mean MinResponse % 72 h NCIH1568.1 [1, 4] | IC50 (SF3b complexes) | IC50 [2, 5] | IC50 [2, 6] | CTGlo-ATS Mean MinResponse % 72 h NCIH1568.1 [1, 7] | GI50 [1, 8] | Ratio Ad2.1/2.2 [2] | GI50 [1, 9] |
| --- | --- | --- | --- | --- | --- | --- | --- | --- | --- |
| CC(=O)N1CCC(N(C)c2cc(F)cc(/C=C(\C)[C@H]3OC(=O)C[C@H](O)CC[C@H](C)[C@@H](OC(=O)N4CCN(C)CC4)/C=C/[C@@H]3C)c2)CC1 [Compound 177] | 3.62 nM | −80.643% | 2.38 nM | 18.2 nM | 10.3 nM |  |  |  |  |
| C/C(=C\c1cc(F)c2nnn([C@H](C)CO)c2c1)[C@H]1OC(=O)C[C@H](O)CC[C@H](C)[C@@H](OC(=O)N2CCN(C)CC2)/C=C/[C@@H]1C [Compound 150] | 2.19 nM | −68.000% | 1.32 nM | 8.58 nM | 11 nM |  |  |  |  |
| C/C(=C\c1cc(F)cc(N(C)C2CCN(C(=O)NC(C)C)CC2)c1)[C@H]1OC(=O)C[C@H](O)CC[C@H](C)[C@@H](OC(=O)N2CCN(C)CC2)/C=C/[C@@H]1C [Compound 191] | 6.33 nM | −83.895% | 3.47 nM | 11.6 nM | 7.47 nM |  |  |  |  |
| C/C(=C\c1cc(F)cc(N2CCN(C(=O)Cn3cccn3)CC2)c1)[C@H]1OC(=O)C[C@H](O)CC[C@H](C)[C@@H](OC(=O)N2CCNC(=O)C2)/C=C/[C@@H]1C [Compound 230, [(2S,3S,4E,6R,7S,10R)-2-[(E)-1-[3-fluoro-5-[4-(2-pyrazol-1-ylacetyl)piperazin-1-yl]phenyl]prop-1-en-2-yl]-10-hydroxy-3,7-dimethyl-12-oxo-1-oxacyclododec-4-en-6-yl] 3-oxopiperazine-1-carboxylate] |  |  | 12.9 nM | 11.7 nM | 10.9 nM | −69.108% | 15.9 nM | 1.078 |  |
| C/C(=C\c1cc(F)cc(N2CCN(C(=O)C3COC3)CC2)c1)[C@H]1OC(=O)C[C@H](O)CC[C@H](C)[C@@H](OC(=O)N2CCN(C)CC2)/C=C/[C@@H]1C [Compound 153] | 2.34 nM | −81.206% | 4.83 nM | 14.5 nM | 14.8 nM |  |  |  |  |
| C/C(=C\c1cc(F)cc(N(C)C2CCN(C(=O)Nc3ccccc3)CC2)c1)[C@H]1OC(=O)C[C@H](O)CC[C@H](C)[C@@H](OC(=O)N2CCN(C)CC2)/C=C/[C@@H]1C [Compound 193] | 17.2 nM | −89.438% | 127 nM | 47.8 nM | 19.6 nM |  |  |  |  |
| C/C(=C\c1cc(F)cc(N2CCN(C(=O)Cn3cccn3)CC2)c1)[C@H]1OC(=O)C[C@H](O)CC[C@H](C)[C@@H](OC(=O)N2CCN(CCO)CC2)/C=C/[C@@H]1C [Compound 234, [(2S,3S,4E,6R,7S,10R)-2-[(E)-1-[3-fluoro-5-[4-(2-pyrazol-1-ylacetyl)piperazin-1-yl]phenyl]prop-1-en-2-yl]-10-hydroxy-3,7-dimethyl-12-oxo-1-oxacyclododec-4-en-6-yl] 4-(2-hydroxyethyl)piperazine-1-carboxylate] |  |  | 3.16 nM | 13.1 nM | 16.5 nM | −81.384% | 5.2 nM | 0.793 |  |
| CCN(c1cc(F)cc(/C=C(\C)[C@H]2OC(=O)C[C@H](O)CC[C@H](C)[C@@H](OC(=O)N3CCN(C)CC3)/C=C/[C@@H]2C)c1)C1CCN(S(C)(=O)=O)CC1 [Compound 175] |  | −99.134% | 5.83 nM | 9.5 nM | 8.12 nM |  |  |  | 9.49 nM |
| C/C(=C\c1cc(F)cc(N(C)C2CCN(C(=O)c3cn(C)cn3)CC2)c1)[C@H]1OC(=O)C[C@H](O)CC[C@H](C)[C@@H](OC(=O)N2CCN(C)CC2)/C=C/[C@@H]1C [Compound 190] | 19.8 nM | −69.142% | 6.55 nM | 33.5 nM | 15.7 nM |  |  |  |  |
| CCCNC(=O)N1CCC(N(C)c2cc(F)cc(/C=C(\C)[C@H]3OC(=O)C[C@H](O)CC[C@H](C)[C@@H](OC(=O)N4CCN(C)CC4)/C=C/[C@@H]3C)c2)CC1 [Compound 192] |  | −75.900% | 3.85 nM | 14.1 nM | 10.3 nM |  |  |  | 7.49 nM |
